Experiments:
[1] = biological target: T1, RXRβ (Homo sapiens, UniProt P28702); assay: ligand binding assay, RXRβ; conditions: read-out: RXR Bind Ki β
T1 sequence (P28702 1-533): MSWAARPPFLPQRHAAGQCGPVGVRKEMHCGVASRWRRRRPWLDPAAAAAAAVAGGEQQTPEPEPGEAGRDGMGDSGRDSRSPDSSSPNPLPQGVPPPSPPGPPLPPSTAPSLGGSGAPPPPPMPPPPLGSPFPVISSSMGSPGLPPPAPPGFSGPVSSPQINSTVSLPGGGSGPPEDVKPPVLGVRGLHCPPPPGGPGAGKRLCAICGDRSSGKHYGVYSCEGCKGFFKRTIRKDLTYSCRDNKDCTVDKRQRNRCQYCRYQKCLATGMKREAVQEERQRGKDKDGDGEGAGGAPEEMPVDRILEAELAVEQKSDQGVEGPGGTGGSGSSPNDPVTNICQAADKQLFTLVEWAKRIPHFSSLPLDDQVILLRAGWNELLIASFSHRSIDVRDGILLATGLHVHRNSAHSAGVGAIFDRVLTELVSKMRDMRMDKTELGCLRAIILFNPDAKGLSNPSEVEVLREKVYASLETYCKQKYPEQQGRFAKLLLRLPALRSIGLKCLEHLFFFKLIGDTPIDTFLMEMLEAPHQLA
Source text: (§1) Other assays described below, measure the ability of the compounds of the present invention to bind to, and/or activate various retinoid receptor subtypes. When in these assays a compound binds to a given receptor subtype and activates the transcription of a reporter gene through that subtype, then the compound is considered an agonist of that receptor subtype. […] In the below described assays the ability of the compounds to bind to RARα, RARβ, RARγ, RXRα, RXRβ and RXRγ receptors, and the ability or inability of the compounds to activate transcription of a reporter gene through these receptor subtypes can be tested. […] However, some of the compounds of the invention may behave as retinoid antagonists or partial antagonists and/or as inverse agonists. Because of the complex distribution of the different retinoid receptors in various organs of the mammalian body partial agonists and partial antagonists and compounds which have the characteristics of both may lend themselves to particularly useful therapeutic applications and may avoid serious side effects of conventional retinoid drugs.
(§2) A holoreceptor transactivation assay and a ligand binding assay which measure the antagonist/agonist like activity of the compounds of the invention, or their ability to bind to the several retinoid receptor subtypes, respectively, are described in published PCT Application No. WO WO93/11755 (particularly on pages 30-33 and 37-41) published on Jun. 24, 1993, the specification of which is also incorporated herein by reference. A detailed experimental procedure for holoreceptor transactivations has been described by Heyman et al. Cell 68, 397-406, (1992); Allegretto et al. J. Biol. Chem. 268, 26625-26633, and Mangelsdorf et al. The Retinoids: Biology, Chemistry and Medicine, pp 319-349, Raven Press Ltd., New York, which are expressly incorporated herein by reference. The results obtained in this assay are expressed in EC50 numbers, as they are also in the chimeric receptor transactivation assay. The results of ligand binding assay are expressed in Kd numbers. (See Cheng et al. Biochemical Pharmacology Vol. 22 pp 3099-3108, expressly incorporated herein by reference.)
(§3) Table 1 discloses the activity of certain exemplary compounds of the invention in the above-described chimeric receptor transactivation assay, holoreceptor transactivation assay and a ligand binding assays. Particularly, the transactivation data pertaining to RAR receptors were obtained in the chimeric assay, and the data pertaining to transactivation of RXR receptors were obtained in the holoreceptor transactivation assay.

[2] = biological target: T2, RXRγ (Homo sapiens, UniProt P48443); assay: ligand binding assay, RXRγ; conditions: read-out: RXR Bind Ki γ
T2 sequence (P48443 1-463): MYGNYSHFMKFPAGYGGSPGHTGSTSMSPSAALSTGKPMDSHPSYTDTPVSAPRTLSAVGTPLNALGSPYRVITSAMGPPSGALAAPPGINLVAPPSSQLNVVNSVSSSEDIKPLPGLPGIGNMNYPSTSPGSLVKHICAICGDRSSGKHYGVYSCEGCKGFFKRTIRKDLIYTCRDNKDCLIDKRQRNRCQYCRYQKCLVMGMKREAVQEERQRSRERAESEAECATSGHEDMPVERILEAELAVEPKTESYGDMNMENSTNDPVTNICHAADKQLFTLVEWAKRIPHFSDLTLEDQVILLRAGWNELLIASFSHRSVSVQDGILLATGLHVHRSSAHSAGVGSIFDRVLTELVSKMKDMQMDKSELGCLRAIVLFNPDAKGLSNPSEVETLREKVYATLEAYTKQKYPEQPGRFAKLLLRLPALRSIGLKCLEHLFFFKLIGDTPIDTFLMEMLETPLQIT
Source text: as §1, §2, §3

[3] = biological target: T3, RXRβ (Mus musculus, UniProt P28704); assay: holoreceptor transactivation assay, RXRβ; assay type: cell-based; conditions: for EC50: holoreceptor assay, read-out: RXR Trans EC50 β; for Emax: relative to 10^-6 M cyclopropyl penta-2,4-dienoic acid reference, read-out: % efficacy, RXRβ transactivation
T3 construct: expressed in transfected cells
T3 sequence (P28704 1-520): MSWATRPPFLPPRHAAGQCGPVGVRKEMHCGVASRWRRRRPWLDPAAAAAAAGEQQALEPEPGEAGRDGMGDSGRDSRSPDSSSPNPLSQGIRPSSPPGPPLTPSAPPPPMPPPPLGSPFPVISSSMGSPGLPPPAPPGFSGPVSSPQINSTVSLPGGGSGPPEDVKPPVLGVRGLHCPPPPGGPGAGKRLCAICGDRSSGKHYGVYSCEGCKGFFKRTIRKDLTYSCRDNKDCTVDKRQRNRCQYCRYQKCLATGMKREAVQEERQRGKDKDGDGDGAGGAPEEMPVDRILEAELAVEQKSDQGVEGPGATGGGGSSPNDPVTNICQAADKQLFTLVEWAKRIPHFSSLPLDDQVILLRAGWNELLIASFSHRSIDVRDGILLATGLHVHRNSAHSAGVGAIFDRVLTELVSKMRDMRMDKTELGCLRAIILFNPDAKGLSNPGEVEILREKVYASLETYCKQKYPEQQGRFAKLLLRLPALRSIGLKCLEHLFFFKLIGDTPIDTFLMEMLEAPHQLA
Source text: as §1, §2, §3

| SMILES | Ki [1] [µM] | Ki [2] [µM] | EC50 [3] [µM] | Emax [3] [%] |
| --- | --- | --- | --- | --- |
| CC(C)N1CCC(C)(C)c2cc(N(C)c3ccc(C(=O)O)cc3)ccc21 [Compound 10, 4-[(1-Isopropyl-4,4-dimethyl-1,2,3,4-tetrahydroquinolin-6-yl)methylamino]benzoic Acid] | > 1 | > 10 | – | – |
| Cc1cc2c(cc1N(C)c1ccc(C(=O)O)cc1)C(C)(C)CCN2C(C)C [Compound 22, 4-[(1-Isopropyl-4,4,7-trimethyl-1,2,3,4-tetrahydroquinolin-6-yl)methylamino]benzoic acid] | 1.1 | > 1 | > 1 | 15 |
| CCN(c1ccc(C(=O)O)cc1)c1ccc2c(c1)C(C)(C)CC(=O)N2C(C)C [Compound 6, 4-[(1-Isopropyl-4,4-dimethyl-2-oxo-1,2,3,4-tetrahydroquinolin-6-yl)ethylamino]benzoic Acid] | – | > 10 | > 1 | 40 |
| CCN(c1ccc(C(=O)O)cc1)c1ccc2c(c1)C(C)(C)CCN2C(C)C [Compound 12, 4-[(1-Isopropyl-4,4-dimethyl-1,2,3,4-tetrahydroquinolin-6-yl)ethylamino]benzoic acid] | 0.273 | 1.3 | 1 | 75 |
| CCN(c1ccc(C(=O)O)cc1)c1cc2c(cc1C)N(C(C)C)CCC2(C)C [Compound 24, 4-[(1-Isopropyl-4,4,7-trimethyl-1,2,3,4-tetrahydroquinolin-6-yl)ethylamino]benzoic acid] | 1.1 | > 1 | 1 | 70 |
| Cc1cc2c(cc1Nc1ccc(C(=O)O)cc1)N(C(C)C)CCC2(C)C [Compound 50, 4-(1-Isopropyl-4,4,6-trimethyl-1,2,3,4-tetrahydro-quinolin-7-ylamino)-benzoic acid] | 0.262 | > 1 | 0.027 | 104 |
| CC(C)CCN(c1ccc(C(=O)O)cc1)c1ccc2c(c1)C(C)(C)CCN2C(C)C [Compound 14, 4-[(1-Isopropyl-4,4-dimethyl-1,2,3,4-tetrahydroquinolin-6-yl)(3-methylbutyl)amino]-benzoic Acid] | 0.778 | > 1 | – | – |

Further molecules by falling Ki [2], results first:

| Ki [1] [µM] | Ki [2] [µM] | EC50 [3] [µM] | Emax [3] [%] | SMILES |
| --- | --- | --- | --- | --- |
| 0.386 | 1.3 | > 1 | 10 | Cc1cc2c(cc1N(CC1CC1)c1ccc(C(=O)O)cc1)C(C)(C)CCN2C(C)C [Compound 26, 4-[(1-Isopropyl-4,4,7-trimethyl-1,2,3,4-tetrahydro-quinolin-6-yl)(cyclopropylmethyl)amino]benzoic acid] |
| 0.142 | 0.317 | 0.374 | 119 | Cc1cc2c(cc1N(C)c1ccc(C(=O)O)cc1)N(C(C)C)CCC2(C)C [Compound 51, 4-[(1-Isopropyl-4,4,6-trimethyl-1,2,3,4-tetrahydro-quinolin-7-yl)-methyl-amino]-benzoic acid] |
| 0.043 | 0.095 | 0.002 | 93 | CCCN(c1ccc(C(=O)O)cc1)c1cc2c(cc1C)C(C)(C)CCN2C(C)C [Compound 53, 4-[(1-Isopropyl-4,4,6-trimethyl-1,2,3,4-tetrahydro-quinolin-7-yl)-propyl-amino]-benzoic acid] |
| 0.133 | 0.06 | 0.01 | 97 | CC(C)CN(c1ccc(C(=O)O)cc1)c1ccc2c(c1)N(C(C)C)CCC2(C)C [Compound 39, 4-[(1-Isopropyl-4,4-dimethyl-1 2,3,4-tetrahydroquinolin-7-yl)isobutylamino]benzoic acid] |
| 0.099 | 0.038 | 0.002 | 96 | CCN(c1ccc(C(=O)O)cc1)c1cc2c(cc1C)C(C)(C)CCN2C(C)C [Compound 52, 4-[-(1-Isopropyl-4,4,6-trimethyl-1,2,3,4-tetrahydro-quinolin-7-yl)ethylamino]-benzoic acid] |
| 0.042 | 0.034 | 0.003 | 93 | CC(C)N1CCC(C)(C)c2ccc(N(CC3CC3)c3ccc(C(=O)O)cc3)cc21 [Compound 40, 4-[(1-Isolpropyl-4,4-dimethyl-1,2,3,4-tetrahydroquinolin-7-yl)(cylopropylmethyl)amino]benzoic acid] |
| 0.057 | 0.027 | 0.007 | 102 | CCN(c1ccc(C(=O)O)cc1)c1ccc2c(c1)N(C(C)C)CCC2(C)C [Compound 38, 4-[(1-Isopropyl-4,4-dimethyl-1,2,3,4-tetrahydroquinolin-7-yl)ethylamino]benzoic acid] |

From US6127382A, “Amines substituted with a tetrahydroquinolinyl group an aryl or heteroaryl group and an alkyl group, having retinoid-like biological activity” (Allergan Sales, Inc., priority 1999, dated 2000)
